{
  "source": "patent US20230270714A1",
  "about": "“SALVINORIN COMPOSITIONS” (priority 2021, published 2023)",
  "key": {"[1]": {"experiment": "Solubility of Salvinorin A in solubilizer oils (HPLC)"}, "[2]": {"experiment": "Solubility of Salvinorin A API and Salvinorin A loaded buccal films in 10 mM PBS pH 7", "assay_type": "physicochemical", "method": "After 3 hours samples were filtered through 0.45/0.22 micron filter and tested for content by HPLC analysis."}, "[3]": {"experiment": "Solubilization of Salvinorin A mixed with solubilizers in water (supersaturated mixtures, HPLC)"}, "[4]": {"experiment": "Salvinorin A solubility in polar aprotic solvents", "assay_type": "physicochemical", "method": "In Table 9 below the solubility of Salvinorin A in polar aprotic solvents was evaluated by increasing the amount of Salvinorin A in the candidate solvents."}, "[5]": {"settings": "administered orally, even at higher doses; cited from earlier work"}, "[6]": {"experiment": "Pharmacokinetics of subcutaneous Salvinorin A in rats, first experiment (in 1-methyl-2-pyrrolidine, polyethylene glycol 400 1:9 v/v)", "assay_type": "in vivo, male Sprague-Dawley rats", "method": "A series of experiments were conducted in order to evaluate the pharmacokinetics of injectable Salvinorin A compositions in rats. In the first experiment Salvinorin A was formulated at two different dose concentrations (5 mg/mL and 20 mg/mL Salvinorin A in 1-methyl-2-pyrrolidine, polyethylene glycol 400 at a 1:9 v/v ratio) and administered via injection (subcutaneous) to two groups of male Sprague-Dawley rats."}, "[7]": {"experiment": "Pharmacokinetics of subcutaneous Salvinorin A in rats, Day 1 and Day 8 (in 1-methyl-2-pyrrolidine, polyethylene glycol 400 1:9 v/v)", "assay_type": "in vivo, Sprague-Dawley rats", "settings": "Day 1", "method": "In another experiment Salvinorin A was formulated at three different dose concentrations (1 mg/mL, 5 mg/mL, and 10 mg/mL Salvinorin A in 1-methyl-2-pyrrolidine, polyethylene glycol 400 at a 1:9 v/v ratio) and administered via injection (subcutaneous) to three groups of Sprague-Dawley rats (each group including female and male rats). The formulation containing 10 mg/mL Salvinorin A was administered as two injections at separate dosage sites (total dose of 100 mg/kg). The same groups of rats were administered a second dose of the injectable composition 7 days after the first dosing."}, "[8]": {"settings": "Group 1, 25 mg/kg subcutaneous, Mean"}, "[9]": {"settings": "Group 1, 25 mg/kg subcutaneous, individual rats 0, 1, 2, 25 mg/kg"}, "[10]": {"settings": "Group 2, 100 mg/kg subcutaneous, Mean"}, "[11]": {"settings": "Group 2, 100 mg/kg subcutaneous, individual rats 3, 4, 5, 100 mg/kg"}, "[12]": {"settings": "Group 10, 5 mg/kg subcutaneous, Mean of M and F"}, "[13]": {"settings": "Group 10, 5 mg/kg subcutaneous, Sex F"}, "[14]": {"settings": "Group 10, 5 mg/kg subcutaneous, Sex M"}, "[15]": {"settings": "Group 11, 25 mg/kg subcutaneous, Mean of M and F"}, "[16]": {"settings": "Group 11, 25 mg/kg subcutaneous, Sex F"}, "[17]": {"settings": "Group 11, 25 mg/kg subcutaneous, Sex M"}},
  "note": "Where “and” joins values, the source holds several entries; their conditions need not be identical. Identical values can stand only once.",
  "data": [
    {"compound": "COC(=O)[C@@H]1C[C@H](OC(C)=O)C(=O)[C@H]2[C@@]1(C)CC[C@H]1C(=O)O[C@H](c3ccoc3)C[C@]21C", "note": "[Salvinorin A]", "values": [
      {"measurement": "Solubility (mg/ml) HPLC", "setting": "[1]; Eucaliptol 5 g, Salvinorin A 12.00 mg", "result": 0.108, "unit": "mg/mL"},
      {"measurement": "Solubility (mg/ml) HPLC", "setting": "[1]; L Menthone 5 g, Salvinorin A 10.00 mg", "result": 0.101, "unit": "mg/mL"},
      {"measurement": "Solubility (mg/ml) HPLC", "setting": "[1]; Oleyl Alcohol 5 g, Salvinorin A 11.00 mg", "result": 0.065, "unit": "mg/mL"},
      {"measurement": "Solubility (mg/ml) HPLC", "setting": "[1]; Peppermint oil 5 g, Salvinorin A 9.90 mg", "result": 0.384, "unit": "mg/mL"},
      {"measurement": "Solubility (mg/ml) HPLC", "setting": "[1]; S Limonene 5 g, Salvinorin A 10.00 mg", "result": 0.052, "unit": "mg/mL"},
      {"measurement": "Solubility (mg/ml) HPLC", "setting": "[1]; Soybean oil 5 g, Salvinorin A 11.00 mg", "result": 0.032, "unit": "mg/mL"},
      {"measurement": "Solubility", "setting": "[2]; 4 mg equivalent of API powder or film in 10 mL 10 mM PBS, pH 7, 3 hours, filtered, HPLC", "result": 1.8, "unit": "µg/mL"},
      {"measurement": "Solubility (in words)", "setting": "[2]; 10 mM PBS, pH 7.0", "result": "very low solubility"},
      {"measurement": "Solubility (mg/ml) HPLC", "setting": "[3]; Benzalkonium chloride (BKC) 50 mg, Salvinorin A 21 mg, water 10 ml", "result": 0.008, "unit": "mg/mL"},
      {"measurement": "Solubility (mg/ml) HPLC", "setting": "[3]; Poloxamer 407 (Lutrol micro 127 MP) 150 mg, Salvinorin A 21 mg, water 10 ml", "result": 0.008, "unit": "mg/mL"},
      {"measurement": "Solubility (mg/ml) HPLC", "setting": "[3]; SPAN 60 103.00 mg, Salvinorin A 12.00 mg, water 5 ml", "result": 0.013, "unit": "mg/mL"},
      {"measurement": "Solubility (mg/ml) HPLC", "setting": "[3]; Sodium Deoxycholate 100 mg, Salvinorin A 22 mg, water 10 ml", "result": 0.078, "unit": "mg/mL"},
      {"measurement": "Solubility (mg/ml) HPLC", "setting": "[3]; Sodium dodecyl sulfate (SDS; SLS) 50 mg, Salvinorin A 21 mg, water 10 ml", "result": 0.013, "unit": "mg/mL"},
      {"measurement": "Solubility (mg/ml) HPLC", "setting": "[3]; TPGS (soluble vitamin E) 100 mg, Salvinorin A 23 mg, water 10 ml", "result": 0.011, "unit": "mg/mL"},
      {"measurement": "Solubility (Y= soluble, N= not soluble completely)", "setting": "[4]; DMA, 100 mg/ml", "result": "Y (Y= soluble)"},
      {"measurement": "Solubility (Y= soluble, N= not soluble completely)", "setting": "[4]; DMA, 200 mg/ml", "result": "N (N= not soluble completely)"},
      {"measurement": "Solubility (Y= soluble, N= not soluble completely)", "setting": "[4]; DMSO, 100 mg/ml", "result": "Y (Y= soluble)"},
      {"measurement": "Solubility (Y= soluble, N= not soluble completely)", "setting": "[4]; DMSO, 200 mg/ml", "result": "N (N= not soluble completely)"},
      {"measurement": "Solubility (Y= soluble, N= not soluble completely)", "setting": "[4]; NMP, 20 mg/ml", "result": "Y (Y= soluble)"},
      {"measurement": "Solubility (Y= soluble, N= not soluble completely)", "setting": "[4]; NMP, 100 mg/ml", "result": "Y (Y= soluble)"},
      {"measurement": "Solubility (Y= soluble, N= not soluble completely)", "setting": "[4]; NMP, 200 mg/ml", "result": "Y (Y= soluble)"},
      {"measurement": "psychoactive effects", "setting": "[5]", "result": "fails to exhibit any psychoactive effects"},
      {"measurement": "AUC0-00", "setting": "[6]; [8]", "result": 457.0, "unit": "ng·h/mL"},
      {"measurement": "AUClast", "setting": "[6]; [8]", "result": 427.3, "unit": "ng·h/mL"},
      {"measurement": "Cmax", "setting": "[6]; [8]", "result": 215.3, "unit": "ng/mL"},
      {"measurement": "Tmax", "setting": "[6]; [8]", "result": 0.50, "unit": "h"},
      {"measurement": "T½", "setting": "[6]; [8]", "result": 1.5, "unit": "h"},
      {"measurement": "Tmax", "setting": "[6]; Group 1, 25 mg/kg subcutaneous, individual rats 0, 1, 2", "result": 0.50, "unit": "h"},
      {"measurement": "AUC0-00", "setting": "[6]; [9]", "result": "389 ng·h/mL and 422 ng·h/mL and 560 ng·h/mL"},
      {"measurement": "AUClast", "setting": "[6]; [9]", "result": "362 ng·h/mL and 405 ng·h/mL and 515 ng·h/mL"},
      {"measurement": "Cmax", "setting": "[6]; [9]", "result": "209 ng/mL and 213 ng/mL and 224 ng/mL"},
      {"measurement": "T½", "setting": "[6]; [9]", "result": "1.00 h and 1.58 h and 1.96 h"},
      {"measurement": "AUC0-00", "setting": "[6]; [10]", "result": 419.3, "unit": "ng·h/mL"},
      {"measurement": "AUClast", "setting": "[6]; [10]", "result": 395.0, "unit": "ng·h/mL"},
      {"measurement": "Cmax", "setting": "[6]; [10]", "result": 183.3, "unit": "ng/mL"},
      {"measurement": "Tmax", "setting": "[6]; [10]", "result": 0.7, "unit": "h"},
      {"measurement": "T½", "setting": "[6]; [10]", "result": 1.5, "unit": "h"},
      {"measurement": "AUC0-00", "setting": "[6]; [11]", "result": "365 ng·h/mL and 498 ng·h/mL and 395 ng·h/mL"},
      {"measurement": "AUClast", "setting": "[6]; [11]", "result": "348 ng·h/mL and 461 ng·h/mL and 376 ng·h/mL"},
      {"measurement": "Cmax", "setting": "[6]; [11]", "result": "187 ng/mL and 208 ng/mL and 155 ng/mL"},
      {"measurement": "Tmax", "setting": "[6]; [11]", "result": "1.00 h and 0.50 h"},
      {"measurement": "T½", "setting": "[6]; [11]", "result": "0.87 h and 1.91 h and 1.73 h"},
      {"measurement": "AUClast", "setting": "[7]; [12]", "result": 191, "unit": "ng·h/mL"},
      {"measurement": "Cmax", "setting": "[7]; [12]", "result": 67.1, "unit": "ng/mL"},
      {"measurement": "Tmax", "setting": "[7]; [12]", "result": 3, "unit": "h"},
      {"measurement": "AUClast", "setting": "[7]; [13]", "result": 233, "unit": "ng·h/mL"},
      {"measurement": "Cmax", "setting": "[7]; [13]", "result": 75.8, "unit": "ng/mL"},
      {"measurement": "Tlast", "setting": "[7]; [13]", "result": 4, "unit": "h"},
      {"measurement": "Tmax", "setting": "[7]; [13]", "result": 4, "unit": "h"},
      {"measurement": "AUClast", "setting": "[7]; [14]", "result": 148, "unit": "ng·h/mL"},
      {"measurement": "Cmax", "setting": "[7]; [14]", "result": 58.4, "unit": "ng/mL"},
      {"measurement": "Tlast", "setting": "[7]; [14]", "result": 4, "unit": "h"},
      {"measurement": "Tmax", "setting": "[7]; [14]", "result": 2, "unit": "h"},
      {"measurement": "AUClast", "setting": "[7]; [15]", "result": 375, "unit": "ng·h/mL"},
      {"measurement": "Cmax", "setting": "[7]; [15]", "result": 192, "unit": "ng/mL"},
      {"measurement": "Tmax", "setting": "[7]; [15]", "result": 0.75, "unit": "h"},
      {"measurement": "AUClast", "setting": "[7]; [16]", "result": 389, "unit": "ng·h/mL"},
      {"measurement": "Cmax", "setting": "[7]; [16]", "result": 250, "unit": "ng/mL"},
      {"measurement": "Tlast", "setting": "[7]; [16]", "result": 4, "unit": "h"},
      {"measurement": "Tmax", "setting": "[7]; [16]", "result": 0.5, "unit": "h"},
      {"measurement": "AUClast", "setting": "[7]; [17]", "result": 361, "unit": "ng·h/mL"},
      {"measurement": "Cmax", "setting": "[7]; [17]", "result": 135, "unit": "ng/mL"},
      {"measurement": "Tlast", "setting": "[7]; [17]", "result": 4, "unit": "h"},
      {"measurement": "Tmax", "setting": "[7]; [17]", "result": 1, "unit": "h"}
    ]}
  ]
}
